Experimental data published in PMC6045421 (ACS Omega, 2018).
Entries after “also recorded” stand apart in the source; their conditions may differ.

Legend:
recombinant human IRAP = recombinant human IRAP (Homo sapiens, UniProt Q9UIQ6); format: biochemical; details: HEK293
aminopeptidase N (APN) = details: cited from earlier work
[1] = test system: leukotriene A4 hydrolase (LTA4H); details: cited from earlier work
[2] = test system: IRAP from Chinese hamster ovary (CHO) cells; details: read-out: IC50 in CHO cells, hamster enzyme; cited from earlier work
[3] = test system: primary hippocampal neuron cultures; details: primary hippocampal neuron cultures from mice; cited from earlier work
[4] = Stability in human liver microsomes; format: in vitro ADME; details: HLM and MLM

Chain of recombinant human IRAP (Q9UIQ6 whole entry): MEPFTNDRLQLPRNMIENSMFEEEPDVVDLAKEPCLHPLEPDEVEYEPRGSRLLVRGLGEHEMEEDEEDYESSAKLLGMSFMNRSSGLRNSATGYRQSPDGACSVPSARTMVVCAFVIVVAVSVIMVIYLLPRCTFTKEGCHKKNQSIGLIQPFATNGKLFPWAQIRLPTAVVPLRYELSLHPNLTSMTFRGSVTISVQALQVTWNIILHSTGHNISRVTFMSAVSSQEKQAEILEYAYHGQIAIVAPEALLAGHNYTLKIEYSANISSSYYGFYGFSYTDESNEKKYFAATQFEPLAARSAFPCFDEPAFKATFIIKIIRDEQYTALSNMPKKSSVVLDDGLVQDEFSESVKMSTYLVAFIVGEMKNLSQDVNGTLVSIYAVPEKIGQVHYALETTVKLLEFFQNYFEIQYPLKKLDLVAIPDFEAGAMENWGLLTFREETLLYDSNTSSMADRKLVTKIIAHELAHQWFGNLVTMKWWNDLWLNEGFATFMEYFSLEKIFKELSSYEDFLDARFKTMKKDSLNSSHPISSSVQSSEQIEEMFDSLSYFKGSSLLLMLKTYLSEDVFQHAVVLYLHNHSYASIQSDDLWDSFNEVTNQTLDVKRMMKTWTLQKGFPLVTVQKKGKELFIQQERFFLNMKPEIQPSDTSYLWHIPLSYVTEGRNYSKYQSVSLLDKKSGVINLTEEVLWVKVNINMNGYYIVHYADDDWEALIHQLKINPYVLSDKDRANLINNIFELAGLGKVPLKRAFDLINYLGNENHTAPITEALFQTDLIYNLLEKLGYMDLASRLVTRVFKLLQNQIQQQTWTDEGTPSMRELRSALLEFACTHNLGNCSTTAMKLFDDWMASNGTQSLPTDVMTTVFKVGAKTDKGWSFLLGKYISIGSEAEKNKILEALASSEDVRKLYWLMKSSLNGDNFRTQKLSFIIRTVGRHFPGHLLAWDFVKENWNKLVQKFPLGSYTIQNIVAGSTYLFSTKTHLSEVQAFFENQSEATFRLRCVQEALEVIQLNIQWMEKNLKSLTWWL

SMILES	IRAP inhibition (in words) (recombinant human IRAP)	inhibition of APN relative to IRAP (in words) (aminopeptidase N (APN))	inhibition of LTA4H relative to IRAP (in words) [1]	IC50 [2]	density of dendritic spines (in words) [3]	stability in the microsome assays (in words) [4]
O=C(Nc1cccc(-c2nnn[nH]2)c1)c1cc(Br)c(Cl)s1 [Compound 12]	complete lack of inhibitory activity	–	–	–	–	–
O=S(=O)(Nc1cccc(-c2nnn[nH]2)c1)c1cc(Cl)c(Cl)s1 [Compound 13]	submicromolar activity	–	–	–	–	–
O=S(=O)(Nc1cccc(-c2nnn[nH]2)c1)c1ccc(-c2ccccc2)cc1 [Compound 20]	totally inactive	–	–	–	–	–
O=S(=O)(Nc1cccc(-c2nnn[nH]2)c1)c1ccc(Cl)c2nonc12 [Compound 21]	submicromolar	much lower efficacy	much lower efficacy	–	–	–
Cc1ccc(S(=O)(=O)Nc2cccc(-c3nnn[nH]3)c2)cc1C [Compound 25]	submicromolar potency	much lower efficacy	much lower efficacy	3.1 µM	enhance the density of dendritic spines	–
O=S(=O)(Nc1cccc(-c2nnn[nH]2)c1)c1cc(Cl)c(Cl)cc1Cl [Compound 26]	submicromolar potency	much lower efficacy	much lower efficacy	2.9 µM	enhance the density of dendritic spines	–
O=S(=O)(Nc1cccc(-c2nnn[nH]2)c1)c1cc(C(F)(F)F)ccc1C(F)(F)F [Compound 29, N-(3-(1H-Tetrazol-5-yl)phenyl)-2,5-bis(trifluoromethyl)benzenesulfonamide]	submicromolar potency; also recorded: submicromolar affinity	–	–	–	–	high metabolic stability
